Results reported in article PMC11126936, “Reactivating Hippo by drug compounds to suppress gastric cancer and enhance chemotherapy sensitivity” (The Journal of Biological Chemistry, 2024).
“And” between values parts separate entries of the source, which are not always exact repeats. Equal entries are not always repeated. “Also recorded” adds a separate entry of the source. Where two headings read alike, the source gives them in different places.

What was measured:
NUGC-4 cells = assay: NUGC-4 cell viability, XMU-MP-1 with cisplatin; format: cell-based, human
MKN-28 cells = assay: Killing efficiency in MKN-28 cells; format: cell-based, human
HGC-27 cells [1] = assay: Cell viability assay in HGC-27 cells; format: cell-based, human; conditions: for inhibition of HGC-27 cell growth / viability: result in words
MST2 = molecular target: T1, MST2 (Homo sapiens, UniProt Q13188); assay: MST assay, binding to MST2
T1 construct: made in house; host or cells: E. coli BL21 Codon plus (DE3)
T1 sequence (Q13188 1-491): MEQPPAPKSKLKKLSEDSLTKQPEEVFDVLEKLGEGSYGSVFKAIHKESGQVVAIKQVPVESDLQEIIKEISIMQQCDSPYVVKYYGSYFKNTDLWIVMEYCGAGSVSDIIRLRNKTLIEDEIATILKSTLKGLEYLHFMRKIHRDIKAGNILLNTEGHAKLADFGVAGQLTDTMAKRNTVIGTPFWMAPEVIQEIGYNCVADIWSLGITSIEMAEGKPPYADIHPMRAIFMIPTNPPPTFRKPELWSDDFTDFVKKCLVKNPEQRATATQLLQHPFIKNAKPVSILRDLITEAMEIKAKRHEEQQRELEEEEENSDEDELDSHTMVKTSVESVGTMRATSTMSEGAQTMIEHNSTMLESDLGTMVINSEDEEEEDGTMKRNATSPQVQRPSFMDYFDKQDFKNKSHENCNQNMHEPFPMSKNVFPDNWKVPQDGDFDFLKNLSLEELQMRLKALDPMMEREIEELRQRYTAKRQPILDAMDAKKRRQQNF

MST2^Mut (L33/E35/V41A) = molecular target: T2, MST2^Mut (L33/E35/V41A) (Homo sapiens, UniProt Q13188, E35A/L33A/V41A); assay: MST assay, binding to MST2 mutant; conditions: L33/E35/V41 substituted with alanine
T2 construct: the mutant MBP-tagged MST2 (amino acid 1–308, L33/E35/V41A); MBP; made in house; host or cells: E. coli BL21 Codon plus (DE3)
T2 sequence (Q13188 1-308 L33A/E35A/V41A): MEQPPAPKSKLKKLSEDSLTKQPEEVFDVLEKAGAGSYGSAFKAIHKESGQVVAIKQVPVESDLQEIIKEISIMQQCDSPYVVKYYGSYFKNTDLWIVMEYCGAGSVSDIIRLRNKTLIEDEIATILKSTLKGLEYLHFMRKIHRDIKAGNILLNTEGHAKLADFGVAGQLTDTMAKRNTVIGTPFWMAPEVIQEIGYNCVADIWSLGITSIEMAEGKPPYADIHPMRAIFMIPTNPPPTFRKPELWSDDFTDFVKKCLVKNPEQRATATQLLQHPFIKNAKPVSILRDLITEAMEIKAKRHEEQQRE

HEK293A cells = assay: DNA repair after etoposide (residual γ-H2AX immunoblot); format: cell-based; conditions: 20 μM etoposide 2 h, then with or without compound 6 h
STRN3–MST2 interaction = molecular target: T3, STRN3–MST2 interaction (Homo sapiens, UniProt Q13188); assay: MBP/GST pull-down and Co-IP, STRN3–MST2; format: binding
T3 construct: GST-tagged MST2 (amino acid 1–308), MBP-tagged MST2 (amino acid 1–308); made in house; host or cells: E. coli BL21 Codon plus (DE3)

HGC-27 cells [2] = assay: Colony formation assay in HGC-27 cells; conditions: about 2 weeks
Experimental: After about 2 weeks incubation, cell colonies were identified by their being stained with 1% crystal violet dye. And colonies with diameters of >1 mm were counted.

[3] = tested on: YAP target gene CTGF in HGC-27 cells; assay: CTGF mRNA (qPCR) in HGC-27 cells; conditions: 48 h
PP2Aa = molecular target: T4, PP2Aa (Homo sapiens, UniProt P30153); assay: MST assay, binding to PP2Aa
T4 construct: GST; made in house; host or cells: E. coli BL21 Codon plus (DE3)
T4 sequence (P30153 8-589): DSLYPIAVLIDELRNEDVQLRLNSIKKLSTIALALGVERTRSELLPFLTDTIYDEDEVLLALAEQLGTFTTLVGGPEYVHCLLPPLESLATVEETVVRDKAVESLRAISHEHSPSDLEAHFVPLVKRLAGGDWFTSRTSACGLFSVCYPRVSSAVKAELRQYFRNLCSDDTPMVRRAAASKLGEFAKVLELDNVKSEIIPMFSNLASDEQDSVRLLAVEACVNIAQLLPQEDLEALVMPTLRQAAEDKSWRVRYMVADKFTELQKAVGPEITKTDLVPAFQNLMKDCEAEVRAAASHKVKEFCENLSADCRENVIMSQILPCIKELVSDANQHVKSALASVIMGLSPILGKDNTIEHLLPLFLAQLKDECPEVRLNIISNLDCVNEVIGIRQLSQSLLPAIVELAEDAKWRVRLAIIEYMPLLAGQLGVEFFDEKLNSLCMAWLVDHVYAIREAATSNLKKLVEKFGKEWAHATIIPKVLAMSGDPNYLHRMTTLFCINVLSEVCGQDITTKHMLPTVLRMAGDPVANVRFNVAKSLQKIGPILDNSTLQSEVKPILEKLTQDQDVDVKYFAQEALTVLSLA

AGS cells = assay: Killing efficiency in AGS cells; format: cell-based, human
zebrafish larvae = conditions: ref [65], [66]; cited from earlier work
[4] = tested on: YAP target gene CTGF in GES-1 cells; assay: CTGF mRNA (qPCR) in GES-1 cells; conditions: 48 h
PP2Aa–STRN3 interaction [5] = molecular target: T5, PP2Aa–STRN3 interaction (Homo sapiens, UniProt P30153); assay: Co-IP of HA-PP2Aa and Flag-STRN3 in HEK293A cells; format: cell-based; design: expressed in transfected cells; host or cells: HEK293A
Target sequence in this assay (P30153 whole entry): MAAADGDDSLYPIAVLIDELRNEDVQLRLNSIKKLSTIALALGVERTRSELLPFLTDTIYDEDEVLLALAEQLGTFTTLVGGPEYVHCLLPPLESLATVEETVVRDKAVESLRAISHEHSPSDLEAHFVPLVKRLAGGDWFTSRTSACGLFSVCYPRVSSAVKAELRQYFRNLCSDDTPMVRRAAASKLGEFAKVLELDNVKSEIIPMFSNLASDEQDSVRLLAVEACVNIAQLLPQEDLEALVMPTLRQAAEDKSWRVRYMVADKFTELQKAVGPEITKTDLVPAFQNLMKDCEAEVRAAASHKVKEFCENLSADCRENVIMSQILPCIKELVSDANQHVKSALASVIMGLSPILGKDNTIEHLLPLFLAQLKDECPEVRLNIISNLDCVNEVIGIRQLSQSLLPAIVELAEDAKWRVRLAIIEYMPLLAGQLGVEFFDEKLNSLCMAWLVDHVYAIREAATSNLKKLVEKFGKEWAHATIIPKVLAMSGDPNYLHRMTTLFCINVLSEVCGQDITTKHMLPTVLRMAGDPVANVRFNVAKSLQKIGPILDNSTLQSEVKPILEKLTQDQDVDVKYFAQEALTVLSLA

PP2Aa–STRN3 interaction [6] = molecular target: T5, PP2Aa–STRN3 interaction; assay: GST pulldown assay, PP2Aa–STRN3; format: binding; design: GST; SUMO; made in house; host or cells: E. coli BL21 Codon plus (DE3); conditions: recombinant GST-PP2Aa and His-Sumo-STRN3; up to 10 μM compound
Target sequence in this assay (P30153 8-589): as the sequence (P30153 8-589) above

AGS cells xenograft = assay: AGS xenograft tumor model; conditions: intratumoral injection, five consecutive days, vs control
Experimental: Briefly, healthy male 615 mice were maintained in pathogen-free conditions. Mice were first injected with 2 × 10^6 AGS cells/per mouse into their flanks to induce tumor formation. Once the tumor volume reached about 100 mm^3, mice were injected intratumorally with indicted inhibitors for five successive days. Two weeks later, the mice were euthanized and then their tumors were harvested and weighed.

11 different GC cells = assay: Cisplatin cell viability in 11 GC cell lines; conditions: read-out: IC50, cisplatin-sensitive GC cell lines; cell lines with higher pMST1/2 such as NUGC-4
[7] = molecular target: T6, purified MST2 recombinant protein (UniProt Q13188); assay: MST; Monolith NT.115, 25 °C, fluorescent-labeled protein; STRN3 and MST2 without CX
T6 sequence (Q13188 1-491, species assumed, looked up): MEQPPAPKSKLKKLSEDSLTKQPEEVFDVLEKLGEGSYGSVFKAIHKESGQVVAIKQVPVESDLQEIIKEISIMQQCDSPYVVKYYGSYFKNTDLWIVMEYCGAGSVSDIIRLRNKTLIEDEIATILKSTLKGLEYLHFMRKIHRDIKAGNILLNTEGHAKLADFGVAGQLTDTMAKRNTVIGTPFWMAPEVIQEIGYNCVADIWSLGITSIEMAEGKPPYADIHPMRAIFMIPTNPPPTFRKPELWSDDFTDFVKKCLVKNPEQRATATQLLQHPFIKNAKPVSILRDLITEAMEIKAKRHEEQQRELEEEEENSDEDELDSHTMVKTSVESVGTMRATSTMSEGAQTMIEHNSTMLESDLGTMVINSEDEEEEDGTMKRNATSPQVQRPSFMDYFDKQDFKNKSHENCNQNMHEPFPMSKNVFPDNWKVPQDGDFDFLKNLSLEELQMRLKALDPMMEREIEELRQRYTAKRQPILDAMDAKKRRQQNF

purified PP2Aa (8–589) [8] = molecular target: T7, purified PP2Aa (8–589) (UniProt P30153 8-589); assay: MST; Monolith NT.115, 25 °C, fluorescent-labeled protein; STRN3 to PP2Aa, also with DSF or TH added; conditions: both partners purified
T7 construct: As used in ITC and MST
T7 sequence (P30153 8-589): as the sequence (P30153 8-589) above

purified PP2Aa (8–589) [9] = molecular target: T7, purified PP2Aa (8–589); conditions: both partners purified
[10] = molecular target: T8, MBP-tagged MST2 (amino acid 1–308) (UniProt Q13188 1-308); conditions: both partners purified
T8 construct: MST2 kinase, amino acid 1-308; also called MBP-MST2; source: E. coli BL21 Coden plus (DE3), purified (MBP beads, size-exclusion chromatography)
T8 sequence (looked up): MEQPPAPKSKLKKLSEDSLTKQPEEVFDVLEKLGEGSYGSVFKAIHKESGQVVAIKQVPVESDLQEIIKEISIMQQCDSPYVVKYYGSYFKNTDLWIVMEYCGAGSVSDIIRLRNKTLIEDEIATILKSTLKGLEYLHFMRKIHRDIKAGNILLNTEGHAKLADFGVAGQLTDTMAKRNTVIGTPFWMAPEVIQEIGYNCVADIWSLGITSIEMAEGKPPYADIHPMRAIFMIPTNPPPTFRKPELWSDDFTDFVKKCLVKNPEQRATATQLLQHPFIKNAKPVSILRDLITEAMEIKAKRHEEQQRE

[11] = molecular target: T9, GST-tagged MST2 (amino acid 1–308) (UniProt Q13188 1-308); conditions: both partners purified
T9 construct: MST2 kinase, amino acid 1-308; also called GST-MST2; source: E. coli BL21 Coden plus (DE3), purified (GST beads, size-exclusion chromatography)
T9 sequence (looked up): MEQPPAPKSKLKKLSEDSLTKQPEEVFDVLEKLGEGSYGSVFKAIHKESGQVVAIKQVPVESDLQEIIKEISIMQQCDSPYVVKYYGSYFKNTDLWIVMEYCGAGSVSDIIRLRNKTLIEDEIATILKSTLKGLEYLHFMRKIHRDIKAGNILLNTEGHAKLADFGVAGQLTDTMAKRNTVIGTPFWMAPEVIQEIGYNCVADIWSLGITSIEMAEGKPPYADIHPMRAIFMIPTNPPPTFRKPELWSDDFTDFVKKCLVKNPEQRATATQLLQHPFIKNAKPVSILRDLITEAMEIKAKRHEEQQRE

[12] = Homo sapiens, HGC-27, cell viability, read-out: IC50 values in HGC-27 cells
[13] = cell viability, read-out: IC50 values in HGC-27 cells

Molecule: CN1C(=O)c2sccc2N(C)c2nc(Nc3ccc(S(N)(=O)=O)cc3)ncc21 [XMU-MP-1]
- effect of co-treatment on cisplatin sensitivity (NUGC-4 cells): triggered much more resistance to cisplatin

Molecule: CN1CCCN(C(=O)c2cccc(-c3ccc(C=C4C(=O)Nc5ccc(Cl)cc54)o3)c2)CC1 [CX, CX-6258]
- sensitization of GC cells to cisplatin (MKN-28 cells; 1 μM CX and 20 μM cisplatin): greatly sensitized GC cells to cisplatin
- inhibition of HGC-27 cell growth / viability (HGC-27 cells [1]): significantly inhibit; also recorded: inhibited the cell viability; also recorded: comparable with DSF
- Kd (MST2): 0.339 µM
- effect on STRN3–MST2 binding (MST2; in the presence of compound): could not bind with each other in the presence of CX
- binding to MST2^Mut (MST2^Mut (L33/E35/V41A)): failed to bind with CX
- DNA repair (residual γ-H2AX) (HEK293A cells): markedly attenuated the repair
- STRN3–MST2 interaction in MBP pull-down (STRN3–MST2 interaction): able to disrupt
- colony formation of HGC-27 cells (HGC-27 cells [2]): inhibited
- mRNA levels of YAP target gene CTGF [3]: dose-dependently decreased

Molecule: CN(C)C(=S)SSC(=S)N(C)C [TH, thiram]
- Kd (PP2Aa): 1.52 µM
- binding affinity to PP2Aa relative to that of STRN3 to PP2Aa (PP2Aa): 14 fold
- effect on binding of STRN3 to PP2Aa (PP2Aa; compound added): efficiently disrupt
- IC50 (HGC-27 cells [1]; [12]): 0.4 µM
- effect of addition of copper ion on suppression of HGC-27 cell viability by the compound (HGC-27 cells [1]; compound-Cu complex vs compound): markedly enhanced
- sensitization of GC cells to cisplatin (AGS cells; 0.1 μM TH and 10 μM cisplatin): significantly sensitized GC cells to cisplatin
- DNA repair (residual γ-H2AX) (HEK293A cells): decreased
- adverse effects in zebrafish larvae (zebrafish larvae): adverse effects
- colony formation of HGC-27 cells (HGC-27 cells [2]): significantly inhibited colony formation
- mRNA levels of YAP target gene CTGF [4]: no significant change
- PP2Aa–STRN3 interaction in Co-IP (PP2Aa–STRN3 interaction [5]): further validated by Co-IP assay
- PP2Aa–STRN3 association in GST pulldown (PP2Aa–STRN3 interaction [6]): efficiently disrupt

Molecule: Oc1cc2c(cc1O)C1c3ccc(O)c(O)c3OCC1(O)C2 (centres unmarked) [HAEMATOXYLIN]
- IC50 (HGC-27 cells [1]; [12]): 37.9 µM

Molecule: Cc1ccc(C(=O)Nc2ccc(S(=O)(=O)[O-])c3cc(S(=O)(=O)[O-])cc(S(=O)(=O)[O-])c23)cc1NC(=O)c1cccc(NC(=O)Nc2cccc(C(=O)Nc3cc(C(=O)Nc4ccc(S(=O)(=O)[O-])c5cc(S(=O)(=O)[O-])cc(S(=O)(=O)[O-])c45)ccc3C)c2)c1.[Na+].[Na+].[Na+].[Na+].[Na+].[Na+] [Suramin Sodium Salt]
- inhibition of HGC-27 cell growth / viability (HGC-27 cells [1]): not
- STRN3–MST2 interaction in MBP pull-down (STRN3–MST2 interaction): able to disrupt

Molecule: N.N.[Cl][Pt][Cl] [cisplatin]
- efficiency in killing cancer cells (MKN-28 cells; nontoxic concentrations, alone or combined): about 20%
- efficiency in killing cancer cells (AGS cells; 0.05 μM DSF, 20 μM cisplatin, alone or combined): about 20%
- tumor weight / tumor growth (AGS cells xenograft): modestly lower tumor weights
- IC50 (11 different GC cells): < 20 µM

Molecule: COc1cc2c(NC3CCN(CC4CCCCC4)CC3)nc(N3CCCN(C(C)C)CC3)nc2cc1OCCCN1CCCCC1 [UNC0631]
- IC50 (HGC-27 cells [1]; [13]): < 5 µM and 2.86 µM

Molecule: O=C([O-])c1ccccc1-c1c2cc(Br)c(=O)cc-2oc2[c]([Hg+])c([O-])c(Br)cc12.[Na+].[Na+].[OH-] [Merbromin]
- IC50 (HGC-27 cells [1]; [13]): 15.2 µM

Molecule: COc1ccc(C(=O)O[C@H]2CC[C@@]3(C)[C@@H]4CC[C@H]5[C@]6(O)C[C@H](O)[C@@]7(O)[C@@H](CN8C[C@@H](C)CC[C@H]8[C@@]7(C)O)[C@]6(O)C[C@@]53O[C@]24O)cc1OC [Veratridine]
- IC50 (HGC-27 cells [1]; Homo sapiens, HGC-27, read-out: IC50 values in HGC-27 cells): 15.7 µM

Molecule: CC(=O)[O][Hg][c]1ccccc1 [Phenylmercuric acetate]
- IC50 (HGC-27 cells [1]; cell viability, listed as phenylmercuric acetate, read-out: IC50 values in HGC-27 cells): < 5 µM
- IC50 (HGC-27 cells [1]; [13]): 4.05 µM

Molecule: O=c1c2ccccc2[se]n1-c1ccccc1 [Ebselen]
- IC50 (HGC-27 cells [1]; [12]): 27.5 µM

B1: STRN3 (64–145) (domain or fragment, UniProt Q13033 64-145, looked up)
chain: TIPGILHYIQHEWARFEMERAHWEVERAELQARIAFLQGERKGQENLKKDLVRRIKMLEYALKQERAKYHKLKYGTELNQGD
notes: STRN3 (striatin-3), amino acid 64-145
- Kd [7]: 0.624 µM
- Kd (purified PP2Aa (8–589) [8]): 20.7 µM
- Kd (purified PP2Aa (8–589) [9]): 11.9 µM

B2: His-SUMO-tagged STRN3 (amino acid 64–145) (domain or fragment, UniProt Q13033 64-145, looked up)
chain: TIPGILHYIQHEWARFEMERAHWEVERAELQARIAFLQGERKGQENLKKDLVRRIKMLEYALKQERAKYHKLKYGTELNQGD
notes: STRN3 (striatin-3), amino acid 64-145; Used where the tag is named or used for capture: the GST and MBP pull-downs and the nickel chelate acceptor beads of the AlphaScreen; also called HS-STRN3; His-tagged STRN3
- binding result [10]: binds
- binding result [11]: binds

B3: STRN3: recombinant His-SUMO-tagged STRN3 (amino acid 64–145), binding partner of PP2Aa and MST2 (protein, UniProt Q13033 64-145, looked up, fragment)
chain: TIPGILHYIQHEWARFEMERAHWEVERAELQARIAFLQGERKGQENLKKDLVRRIKMLEYALKQERAKYHKLKYGTELNQGD
modifications: His-SUMO tag
- Kd (MST2): 0.624 µM
